Measurements: patent US12698474B2, “B-cell cultivation method” (priority 2017, dated 2026)

System: B-cells obtained from a rabbit immunized with human serum albumin (HSA)
Test: Co-cultivation of single deposited B-cells with EL-4 B5 feeder cells, detection of antigen-specific (anti-HSA) IgG by ELISA;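 as to HSA+ wells [% IgG+]: relative ranking scale running from o (lowest) to +++++ (highest)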;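 as to HSA+ wells [% total]: relative ranking scale running from o (lowest) to +++++ (highest)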
Assay type: cell-based
Procedure: In more detail, NZW rabbits, 12-16 weeks old, were immunized with 400 μg recombinant human serum albumin protein (HSA; CAS RN 70024-90-7; Sigma), emulsified with complete Freund's adjuvant, at day 0 by intradermal application, followed by 200 μg HSA emulsified with complete or incomplete Freund's adjuvant at weeks 1, 2, 6, 10 and 23, by alternating intramuscular and subcutaneous injections.
Generally, antibodies produced by single deposited and co-cultivated B-cells or from B-cells obtained from an immunized experimental animal can be characterized with respect to specific antigen binding. The ELISA was performed at room temperature and the ELISA-solution was incubated between the individual steps on a shaker at 20×g. In the first step the antigen was bound to the wells of a 96-well multi well plate. If the antigen was a protein it had been diluted in coating buffer and applied directly to the plate. Peptide antigens were bound via the specific binding pair biotin/streptavidin. The wells of the multi well plate can be already coated with soluble CroteinC (CrC) by the manufacturer. If not, the wells were incubated after the immobilization of the antigen with 200 μl blocking buffer. After the incubation with 100 μl antigen solution per well (pre-coated multi well plate) or 200 μl blocking buffer, respectively, non-bound antigen or blocking buffer was removed by washing with wash buffer. The diluted B-cell supernatants were added in a volume of 100 μl per well and incubated. After the incubation the wells were washed. Afterwards the detection antibody was added in a volume of 100 μl per well. The antibody can be either conjugated to horseradish peroxidase or labeled with biotin. The detection antibody was determined with a streptavidin-horseradish peroxidase conjugate. After the incubation the multi well plate was washed and afterwards 50 μl of a substrate solution containing 3,3′,5,5′ tetramethyl benzidine (TMB) were added per well and incubated for a period as given in Table X. The enzymatic reaction was stopped by the addition of 50 μl sulfuric acid and the optical density was determined at 450 nm and 680 nm with a photometer (Rainbow Thermo ELISA Reader) and the Xread plus-software.
Specifically, the assay was performed at room temperature (RT) on 384-well Maxisorp microtiter plates (Thermo Scientific) with PBS (phosphate buffered saline) buffer supplemented with 0.5% Gelatine and 0.025% Tween V-20. The plates were coated with 0.5 μg/ml of human serum albumin (HSA, Sigma-Aldrich) for at least 2 hours to overnight. After washing (3×) with PBST (PBS with 0.1% Tween®-20) buffer the wells were blocked with PBS with 0.5% Gelatine and 0.1% Tween®-20. Again, the plates were washed 3× and afterwards dilutions of B-cell supernatants were added. After an incubation of 60 min and 3 washing steps with PBST a 1:4000 dilution of a HRP-conjugated anti-rabbit IgG antibody (Amersham) was transferred to the wells and incubated for 60 min. Finally, the plates were repeatedly washed (6×) with PBST and developed with BM Blue® HRP substrate solution for 30 min. Absorbance was measured at 392-405 nm.
Single cell sorted B-cells were cultured in 96-well plates with 200 μl/well EL-4 B5 medium with Pansorbin Cells (SAC) (Calbiochem (Merck), Darmstadt, Deutschland), EL-4 B5 cells (5×10^4/well) and rabbit thymocyte supernatant (TSN) or cytokine mix (CM) with PMA, respectively, for 7 days at 37° C. in an atmosphere of 5% CO2 in the incubator. B-cell culture supernatants were removed for screening and the cells harvested immediately for variable region gene cloning or frozen at −80° C. in 100 μl RLT buffer (Qiagen, Hilden, Germany).

## CCCCCCCCCCCCCC(=O)O[C@@H]1[C@@H](C)[C@@]2(O)[C@@H](C=C(CO)C[C@]3(O)C(=O)C(C)=C[C@@H]23)[C@@H]2C(C)(C)[C@]12OC(C)=O [PMA, (1aR,1bS,4aR,7aS,7bS,8R,9R,9aS)-9a-(acetyloxy)-4a,7b-dihydroxy-3-(hydroxymethyl)-1,1,6,8-tetramethyl-5-oxo-1a,1b,4,4a,5,7a,7b,8,9,9a-decahydro-H-cyclopropa[3,4]benzo[1,2-e]azulen-9-yl myristate]
PMA 0.002 ng/ml, 0.1×CM
  HSA+ wells [% IgG+]: ++
  HSA+ wells [% total]: +
PMA 0.011 ng/ml, 0.032×CM
  HSA+ wells [% IgG+]: +++++
  HSA+ wells [% total]: +++
PMA 0.011 ng/ml, 0.1×CM
  HSA+ wells [% IgG+]: +++++
  HSA+ wells [% total]: +++
PMA 0.054 ng/ml, 0.1×CM
  HSA+ wells [% IgG+]: +++
  HSA+ wells [% total]: +++
PMA 0.095 ng/ml, CM 1x
  Number of anti-HSA antibody positive wells [% of IgG positive wells]: 62.5 % of IgG positive wells
  Number of anti-HSA antibody positive wells [% of total]: 23.8 % of total
PMA 0.127 ng/ml, 0.032×CM
  HSA+ wells [% IgG+]: ++
PMA 0.127 ng/ml, 0.1×CM
  HSA+ wells [% IgG+]: ++
  HSA+ wells [% total]: +
PMA 0.225 ng/ml, 0.1×CM
  HSA+ wells [% IgG+]: ++++
  HSA+ wells [% total]: +++++
PMA 0.3 ng/ml, 0.032×CM
  HSA+ wells [% IgG+]: +++
  HSA+ wells [% total]: ++++
PMA 0.3 ng/ml, CM 0.01x
  Number of anti-HSA antibody positive wells [% of IgG positive wells]: 41.4 % of IgG positive wells
  Number of anti-HSA antibody positive wells [% of total]: 28.6 % of total
PMA 0.3 ng/ml, CM 0.032x
  Number of anti-HSA antibody positive wells [% of IgG positive wells]: 39.0 % of IgG positive wells
  Number of anti-HSA antibody positive wells [% of total]: 27.4 % of total
PMA 0.3 ng/ml, CM 0.1x
  Number of anti-HSA antibody positive wells [% of IgG positive wells]: 42.1 % of IgG positive wells
  Number of anti-HSA antibody positive wells [% of total]: 28.6 % of total
PMA 0.3 ng/ml, CM 0.32x
  Number of anti-HSA antibody positive wells [% of IgG positive wells]: 39.6 % of IgG positive wells
  Number of anti-HSA antibody positive wells [% of total]: 22.6 % of total
PMA 0.3 ng/ml, CM 1x
  Number of anti-HSA antibody positive wells [% of IgG positive wells]: 20.0 % of IgG positive wells
  Number of anti-HSA antibody positive wells [% of total]: 3.6 % of total
PMA 0.534 ng/ml, 0.032×CM
  HSA+ wells [% IgG+]: +++
  HSA+ wells [% total]: ++
PMA 0.534 ng/ml, 0.1×CM
  HSA+ wells [% IgG+]: +++
  HSA+ wells [% total]: +++
PMA 0.535 ng/ml, without CM
  HSA+ wells [% IgG+]: +++++
  HSA+ wells [% total]: +
PMA 0.712 ng/ml, 0.032×CM
  HSA+ wells [% total]: +
PMA 0.712 ng/ml, 0.1×CM
  HSA+ wells [% IgG+]: ++++
  HSA+ wells [% total]: +++
PMA 0.949 ng/ml, 0.032×CM
  HSA+ wells [% IgG+]: +++
  HSA+ wells [% total]: +++++
PMA 0.949 ng/ml, 0.1×CM
  HSA+ wells [% IgG+]: +
PMA 0.95 ng/ml, CM 0x
  Number of anti-HSA antibody positive wells [% of IgG positive wells]: 66.7 % of IgG positive wells
  Number of anti-HSA antibody positive wells [% of total]: 19.0 % of total
PMA 0.95 ng/ml, CM 0.01x
  Number of anti-HSA antibody positive wells [% of IgG positive wells]: 39.7 % of IgG positive wells
  Number of anti-HSA antibody positive wells [% of total]: 27.4 % of total
PMA 0.95 ng/ml, CM 0.032x
  Number of anti-HSA antibody positive wells [% of IgG positive wells]: 45.6 % of IgG positive wells
  Number of anti-HSA antibody positive wells [% of total]: 31.0 % of total
PMA 0.95 ng/ml, CM 0.1x
  Number of anti-HSA antibody positive wells [% of IgG positive wells]: 54.8 % of IgG positive wells
  Number of anti-HSA antibody positive wells [% of total]: 27.4 % of total
PMA 0.95 ng/ml, CM 0.32x
  Number of anti-HSA antibody positive wells [% of IgG positive wells]: 30.0 % of IgG positive wells
  Number of anti-HSA antibody positive wells [% of total]: 7.1 % of total
PMA 0.95 ng/ml, CM 1x
  Number of anti-HSA antibody positive wells [% of IgG positive wells]: 42.9 % of IgG positive wells
  Number of anti-HSA antibody positive wells [% of total]: 3.6 % of total
PMA 0.95 ng/ml, without CM
  HSA+ wells [% IgG+]: +++
PMA 1.266 ng/ml, 0.032×CM
  HSA+ wells [% IgG+]: ++++
  HSA+ wells [% total]: +++++
PMA 1.688 ng/ml, 0.032×CM
  HSA+ wells [% IgG+]: +
  HSA+ wells [% total]: +++++
PMA 1.688 ng/ml, without CM
  HSA+ wells [% IgG+]: +++++
  HSA+ wells [% total]: +++++
PMA 2.25 ng/ml, 0.032×CM
  HSA+ wells [% total]: ++
PMA 2.251 ng/ml, without CM
  HSA+ wells [% IgG+]: +++
  HSA+ wells [% total]: +++++
PMA 3 ng/ml, CM 0.01x
  Number of anti-HSA antibody positive wells [% of IgG positive wells]: 48.3 % of IgG positive wells
  Number of anti-HSA antibody positive wells [% of total]: 33.3 % of total
PMA 3 ng/ml, CM 0.032x
  Number of anti-HSA antibody positive wells [% of IgG positive wells]: 47.5 % of IgG positive wells
  Number of anti-HSA antibody positive wells [% of total]: 34.5 % of total
PMA 3 ng/ml, CM 0.1x
  Number of anti-HSA antibody positive wells [% of IgG positive wells]: 20.0 % of IgG positive wells
  Number of anti-HSA antibody positive wells [% of total]: 7.1 % of total
PMA 3 ng/ml, CM 0.32x
  Number of anti-HSA antibody positive wells [% of IgG positive wells]: 27.3 % of IgG positive wells
  Number of anti-HSA antibody positive wells [% of total]: 3.6 % of total
PMA 3 ng/ml, CM 1x
  Number of anti-HSA antibody positive wells [% of IgG positive wells]: 45.5 % of IgG positive wells
  Number of anti-HSA antibody positive wells [% of total]: 6.0 % of total
PMA 3.999 ng/ml, without CM
  HSA+ wells [% total]: +
PMA 5.331 ng/ml, without CM
  HSA+ wells [% IgG+]: ++
  HSA+ wells [% total]: +++
PMA 7.106 ng/ml, without CM
  HSA+ wells [% IgG+]: +
  HSA+ wells [% total]: ++++
